Columns and labels:
[1] = system: Human immunodeficiency virus 1; assay: Antiviral activity against wildtype HIV-1 IIIB infected in human MT4 cells assessed as protection against virus-induced cytopathic effect incubated for 5 days by MTT assay; assay type: functional, organism-based; conditions: Human immunodeficiency virus 1, IIIB, MT4, 120 h
[2] = Cytotoxicity against human MT4 cells assessed as reduction in cell viability measured after 5 days by MTT assay; conditions: MT4 cells
[3] = Selectivity index, ratio of CC50 for human MT4 cells to EC50 for wild type HIV-1 IIIB infected in human MT4 cellS
[4] = system: Human immunodeficiency virus 1; assay: Antiviral activity against HIV-1 harboring RT L100I mutant infected in human MT4 cells assessed as protection against virus-induced cytopathic effect incubated for 5 days by MTT assay; assay type: functional, organism-based; conditions: Human immunodeficiency virus 1, MT4, 120 h
[5] = system: Human immunodeficiency virus 1; assay: Antiviral activity against HIV-1 harboring RT K103N mutant infected in human MT4 cells assessed as protection against virus-induced cytopathic effect incubated for 5 days by MTT assay; assay type: functional, organism-based; conditions: Human immunodeficiency virus 1, MT4, 120 h
[6] = system: Human immunodeficiency virus 1; assay: Antiviral activity against HIV-1 harboring RT Y181C mutant infected in human MT4 cells assessed as protection against virus-induced cytopathic effect incubated for 5 days by MTT assay; assay type: functional, organism-based; conditions: Human immunodeficiency virus 1, MT4, 120 h
[7] = system: Human immunodeficiency virus 1; assay: Antiviral activity against HIV-1 harboring RT Y188L mutant infected in human MT4 cells assessed as protection against virus-induced cytopathic effect incubated for 5 days by MTT assay; assay type: functional, organism-based; conditions: Human immunodeficiency virus 1, MT4, 120 h
[8] = system: Human immunodeficiency virus 1; assay: Antiviral activity against HIV-1 harboring RT E138K mutant infected in human MT4 cells assessed as protection against virus-induced cytopathic effect incubated for 5 days by MTT assay; assay type: functional, organism-based; conditions: Human immunodeficiency virus 1, MT4, 120 h
[9] = system: Human immunodeficiency virus 1; assay: Antiviral activity against HIV-1 harboring RT F227L/V106A double mutant infected in human MT4 cells assessed as protection against virus-induced cytopathic effect incubated for 5 days by MTT assay; assay type: functional, organism-based; conditions: Human immunodeficiency virus 1, MT4, 120 h
[10] = system: Human immunodeficiency virus 1; assay: Antiviral activity against HIV-1 harboring RT K103N/Y181C double mutant infected in human MT4 cells assessed as protection against virus-induced cytopathic effect incubated for 5 days by MTT assay; assay type: functional, organism-based; conditions: Human immunodeficiency virus 1, MT4, 120 h
[11] = target: Human immunodeficiency virus type 1 reverse transcriptase (Human immunodeficiency virus 1, UniProt Q72547); assay: Inhibition of recombinant wild type HIV-1 Reverse transcriptase incubated for 40 mins by Pico-green reagent based fluorescence analysis

| Compound | EC50 [1] [µM] | CC50 at 120 h [2] [µM] | selectivity ratio ([3]; MT4 cells) | also measured |
| --- | --- | --- | --- | --- |
| N#Cc1ccc(Nc2ncc(-c3cncc(F)c3)c(Nc3c(F)cc(-c4ccncc4)cc3F)n2)cc1 | 0.017 | 156 | 9400 | – |
| Cc1cc(-c2ccncc2)cc(C)c1Nc1nc(Nc2ccc(C#N)cc2)ncc1-c1ccc(N(C)C)nc1 | 0.112 | > 39 | > 350 | – |
| Cc1cc(-c2cnc(Nc3ccc(C#N)cc3)nc2Nc2c(C)cc(-c3ccncc3)cc2C)cnc1Cl | 0.043 | > 242 | > 5560 | – |
| N#Cc1ccc(Nc2ncc(-c3ccc(F)nc3)c(Nc3c(F)cc(-c4ccncc4)cc3F)n2)cc1 | 0.009 | 167 | 18500 | – |
| Cc1cc(-c2cnc(Nc3ccc(C#N)cc3)nc2Nc2c(F)cc(-c3ccncc3)cc2F)cnc1Cl | 0.153 | > 238 | > 1560 | – |
| COc1ncc(-c2cnc(Nc3ccc(C#N)cc3)nc2Nc2c(C)cc(-c3ccncc3)cc2C)cc1N | 0.007 | 81.1 | 11300 | EC50 [4]: 0.048 µM; EC50 [5]: 0.01 µM; EC50 [6]: 0.031 µM; EC50 [7]: 0.066 µM; EC50 [8]: 0.014 µM; EC50 [9]: 1.1 µM; EC50 [10]: 0.114 µM |
| N#Cc1ccc(Nc2ncc(-c3ccsc3)c(Nc3c(F)cc(-c4ccncc4)cc3F)n2)cc1 | 0.007 | 72.1 | 10100 | IC50 [11]: 0.073 µM |
| Cc1cc(-c2cnc(Nc3ccc(C#N)cc3)nc2Nc2c(F)cc(-c3ccncc3)cc2F)ccn1 | 0.02 | 162 | 8090 | – |
| N#Cc1ccc(Nc2ncc(-c3cccnc3)c(Nc3c(F)cc(-c4ccncc4)cc3F)n2)cc1 | 0.019 | > 41.9 | > 2250 | – |
| N#Cc1ccc(Nc2ncc(-c3ccnc(Cl)c3)c(Nc3c(F)cc(-c4ccncc4)cc3F)n2)cc1 | 0.007 | 103 | 14100 | IC50 [11]: 0.138 µM |
| N#Cc1ccc(Nc2ncc(-c3cncc(Cl)c3)c(Nc3c(F)cc(-c4ccncc4)cc3F)n2)cc1 | 0.017 | 159 | 9340 | – |
| Cc1cncc(-c2cnc(Nc3ccc(C#N)cc3)nc2Nc2c(C)cc(-c3ccncc3)cc2C)c1 | 0.018 | 11.5 | 656 | – |
| Cc1cncc(-c2cnc(Nc3ccc(C#N)cc3)nc2Nc2c(F)cc(-c3ccncc3)cc2F)c1 | 0.041 | 104 | 2540 | – |
| Cc1cc(-c2cnc(Nc3ccc(C#N)cc3)nc2Nc2c(F)cc(-c3ccncc3)cc2F)cc(C)n1 | 0.1 | 97.9 | 984 | – |
| N#Cc1ccc(Nc2ncc(-c3ccnc(F)c3)c(Nc3c(F)cc(-c4ccncc4)cc3F)n2)cc1 | 0.01 | 121 | 12300 | IC50 [11]: 0.127 µM |
| N#Cc1ccc(Nc2ncc(-c3ccc(Cl)nc3)c(Nc3c(F)cc(-c4ccncc4)cc3F)n2)cc1 | 0.01 | 196 | 19100 | – |
| Cc1ccc(-c2cnc(Nc3ccc(C#N)cc3)nc2Nc2c(F)cc(-c3ccncc3)cc2F)cn1 | 0.027 | 194 | 7300 | – |
| Cc1cc(-c2cnc(Nc3ccc(C#N)cc3)nc2Nc2c(C)cc(-c3ccncc3)cc2C)cnc1F | 0.033 | > 249 | > 7640 | – |
| Cc1cc(-c2cnc(Nc3ccc(C#N)cc3)nc2Nc2c(C)cc(-c3ccncc3)cc2C)cc(C)n1 | 0.064 | 36.1 | 563 | – |

| Compound | EC50 [1] [µM] | CC50 at 120 h [2] [µM] | selectivity ratio ([3]; MT4 cells) | also measured |
| --- | --- | --- | --- | --- |
| N#Cc1ccc(Nc2ncc(-c3ccco3)c(Nc3c(F)cc(-c4ccncc4)cc3F)n2)cc1 | 0.007 | > 42.9 | > 6300 | IC50 [11]: 0.077 µM |
| Cc1cc(-c2cnc(Nc3ccc(C#N)cc3)nc2Nc2c(F)cc(-c3ccncc3)cc2F)cnc1F | 0.025 | > 246 | > 9800 | – |
| Cc1cc(-c2ccncc2)cc(C)c1Nc1nc(Nc2ccc(C#N)cc2)ncc1-c1ccc(Cl)nc1 | 0.001 | 3.98 | 3990 | IC50 [11]: 0.175 µM |
| COc1ccc(-c2cnc(Nc3ccc(C#N)cc3)nc2Nc2c(F)cc(-c3ccncc3)cc2F)cn1 | 0.026 | 169 | 6430 | – |
| Cc1cc(-c2ccncc2)cc(C)c1Nc1nc(Nc2ccc(C#N)cc2)ncc1-c1cncc(F)c1 | 0.043 | > 257 | > 6000 | – |
| N#Cc1ccc(Nc2ncc(-c3ccc(N)nc3)c(Nc3c(F)cc(-c4ccncc4)cc3F)n2)cc1 | 0.025 | 143 | 5790 | – |
| COc1ccc(-c2cnc(Nc3ccc(C#N)cc3)nc2Nc2c(C)cc(-c3ccncc3)cc2C)cn1 | 0.077 | > 250 | > 3270 | – |
| N#Cc1ccc(Nc2ncc(-c3cncc(N)c3)c(Nc3c(F)cc(-c4ccncc4)cc3F)n2)cc1 | 0.07 | 167 | 2380 | – |
| COc1ncc(-c2cnc(Nc3ccc(C#N)cc3)nc2Nc2c(F)cc(-c3ccncc3)cc2F)cc1F | 0.049 | > 238 | > 4810 | – |
| COc1cc(-c2cnc(Nc3ccc(C#N)cc3)nc2Nc2c(F)cc(-c3ccncc3)cc2F)ccn1 | 0.02 | > 246 | > 12400 | – |
| COc1ncc(-c2cnc(Nc3ccc(C#N)cc3)nc2Nc2c(F)cc(-c3ccncc3)cc2F)cc1N | 0.044 | 215 | 4930 | – |
| N#Cc1ccc(Nc2ncc(-c3cccs3)c(Nc3c(F)cc(-c4ccncc4)cc3F)n2)cc1 | 0.011 | 23.4 | 2170 | IC50 [11]: 0.105 µM |
| N#Cc1ccc(Nc2ncc(-c3ccncc3)c(Nc3c(F)cc(-c4ccncc4)cc3F)n2)cc1 | 0.01 | > 41.9 | > 4360 | – |
| Cc1cc(-c2ccncc2)cc(C)c1Nc1nc(Nc2ccc(C#N)cc2)ncc1-c1ccc(C(F)(F)F)nc1 | 0.045 | > 3720 | > 822 | – |
| CN(C)c1ccc(-c2cnc(Nc3ccc(C#N)cc3)nc2Nc2c(F)cc(-c3ccncc3)cc2F)cn1 | 0.074 | 52.9 | 714 | – |
| Cn1c(Cn2ccc(C(F)(F)F)c(Oc3cc(Cl)cc(C#N)c3)c2=O)n[nH]c1=O [DORAVIRINE] | – | – | – | IC50 [11]: 0.033 µM |
| O=C1Nc2ccc(Cl)cc2[C@@](C#CC2CC2)(C(F)(F)F)O1 [EFAVIRENZ] | 0.045 | > 7.49 | – | EC50 [4]: 0.024 µM; EC50 [5]: 0.059 µM; EC50 [6]: 0.006 µM; EC50 [9]: 0.181 µM |
| Cc1ccnc2c1NC(=O)c1cccnc1N2C1CC1 [NEVIRAPINE] | – | > 15 | – | EC50 [4]: 1.79 µM; EC50 [7]: > 10 µM; EC50 [8]: 0.142 µM; EC50 [9]: > 10 µM; EC50 [10]: > 10 µM |
| Cc1cn([C@H]2C[C@H](N=[N+]=[N-])[C@@H](CO)O2)c(=O)[nH]c1=O [ZIDOVUDINE] | 0.026 | > 248 | – | selectivity ratio ([3]; mt4): > 9710; EC50 [5]: 0.025 µM; EC50 [6]: 0.037 µM; EC50 [7]: 0.033 µM; EC50 [8]: 0.03 µM; EC50 [9]: 0.028 µM |

Source: ChEMBL document CHEMBL6120973 (J Med Chem, 2024)
